ChEMBL document CHEMBL1909294, “Translating clinical findings into knowledge in drug safety evaluation--drug induced liver injury prediction system (DILIps)” (PLoS Comput Biol, 2011)

Key:
[1] = system: Hepatotoxicity;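 for HepSE Combined Scores: combined hepatic side effect score as listed in the training data of the Drug Induced Liver Injury Prediction System (DILIps)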;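 for HepSE bilirubinemia: bilirubinemia hepatic side effect score drawn from the DILIps training data, a prediction system for drug-induced liver injury; call rule not given here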;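 for HepSE elevated liver function tests: hepatic side effect score for raised liver function tests, as recorded in the DILIps training set used for predicting drug-induced liver injury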; for HepSE hepatic failure: call rule not given here;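 for HepSE hepatomegaly: hepatic side effect score for hepatomegaly, taken from the training set of the DILIps drug-induced liver injury prediction system; call rule not given here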;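 for HepSE jaundice: Jaundice-related hepatic side-effect score drawn from the training data of the DILIps (drug-induced liver injury prediction system); call rule not given here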; for HepSE liver disease: call rule not given here
[2] = system: Hepatotoxicity; remark: listed apart in the source;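 for HepSE Combined Scores: combined hepatic side effect score as listed in the training data of the Drug Induced Liver Injury Prediction System (DILIps)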;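 for HepSE bilirubinemia: bilirubinemia hepatic side effect score drawn from the DILIps training data, a prediction system for drug-induced liver injury; call rule not given here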;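 for HepSE elevated liver function tests: hepatic side effect score for raised liver function tests, as recorded in the DILIps training set used for predicting drug-induced liver injury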; for HepSE hepatic failure: call rule not given here;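 for HepSE hepatomegaly: hepatic side effect score for hepatomegaly, taken from the training set of the DILIps drug-induced liver injury prediction system; call rule not given here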;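 for HepSE jaundice: Jaundice-related hepatic side-effect score drawn from the training data of the DILIps (drug-induced liver injury prediction system); call rule not given here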; for HepSE liver disease: call rule not given here
[3] = system: Hepatotoxicity; remark: listed apart in the source;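 for HepSE Combined Scores: combined hepatic side effect score as listed in the training data of the Drug Induced Liver Injury Prediction System (DILIps)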;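 for HepSE bilirubinemia: bilirubinemia hepatic side effect score drawn from the DILIps training data, a prediction system for drug-induced liver injury; call rule not given here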;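 for HepSE elevated liver function tests: hepatic side effect score for raised liver function tests, as recorded in the DILIps training set used for predicting drug-induced liver injury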; for HepSE hepatic failure: call rule not given here;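 for HepSE hepatomegaly: hepatic side effect score for hepatomegaly, taken from the training set of the DILIps drug-induced liver injury prediction system; call rule not given here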;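 for HepSE jaundice: Jaundice-related hepatic side-effect score drawn from the training data of the DILIps (drug-induced liver injury prediction system); call rule not given here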; for HepSE liver disease: call rule not given here
[4] = system: Hepatotoxicity; remark: listed apart in the source;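 for HepSE Combined Scores: combined hepatic side effect score as listed in the training data of the Drug Induced Liver Injury Prediction System (DILIps)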;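 for HepSE bilirubinemia: bilirubinemia hepatic side effect score drawn from the DILIps training data, a prediction system for drug-induced liver injury; call rule not given here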;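 for HepSE elevated liver function tests: hepatic side effect score for raised liver function tests, as recorded in the DILIps training set used for predicting drug-induced liver injury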; for HepSE hepatic failure: call rule not given here;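 for HepSE hepatomegaly: hepatic side effect score for hepatomegaly, taken from the training set of the DILIps drug-induced liver injury prediction system; call rule not given here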;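 for HepSE jaundice: Jaundice-related hepatic side-effect score drawn from the training data of the DILIps (drug-induced liver injury prediction system); call rule not given here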; for HepSE liver disease: call rule not given here
[5] = system: Hepatotoxicity; remark: listed apart in the source; for HepSE hepatic failure: call rule not given here; for HepSE liver disease: call rule not given here
[6] = system: Hepatotoxicity; remark: listed apart in the source; for HepSE hepatic failure: call rule not given here; for HepSE liver disease: call rule not given here
[7] = system: Hepatotoxicity; remark: listed apart in the source
[8] = system: Hepatotoxicity; remark: listed apart in the source
[9] = system: Hepatotoxicity; remark: listed apart in the source
[10] = system: Hepatotoxicity; remark: listed apart in the source
[11] = system: Hepatotoxicity; remark: listed apart in the source
[12] = system: Hepatotoxicity; remark: listed apart in the source
[13] = system: Hepatotoxicity; remark: listed apart in the source
[14] = system: Hepatotoxicity; remark: listed apart in the source

CC(C)OC(=O)CCC/C=C\C[C@@H]1[C@@H](/C=C/[C@@H](O)COc2cccc(C(F)(F)F)c2)[C@H](O)C[C@@H]1O [TRAVOPROST]
0: HepSE_liver disease [1] | HepSE_jaundice [2] | HepSE_bilirubinemia [3] | HepSE_hepatitis [4] | HepSE_elevated liver function tests [5] | HepSE_hepatic failure [6] | HepSE_hepatomegaly [7] | HepSE_Combined Scores [8] | HepSE_liver fatty [9] | HepSE_cirrhosis [10] | HepSE_cholelithiasis [11] | HepSE_liver function tests abnormal [12] | HepSE_hepatic necrosis [13] | HepSE_cholecystitis [14]

C=CC[C@@H]1/C=C(\C)C[C@H](C)C[C@H](OC)[C@H]2O[C@@](O)(C(=O)C(=O)N3CCCC[C@H]3C(=O)O[C@H](/C(C)=C/[C@@H]3CC[C@@H](O)[C@H](OC)C3)[C@H](C)[C@@H](O)CC1=O)[C@H](C)C[C@@H]2OC [TACROLIMUS ANHYDROUS]
1: HepSE_liver disease [1] | HepSE_jaundice [2] | HepSE_bilirubinemia [3] | HepSE_hepatitis [4] | HepSE_liver fatty [9] | HepSE_liver function tests abnormal [12] | HepSE_hepatic necrosis [13]
0: HepSE_elevated liver function tests [5] | HepSE_hepatic failure [6] | HepSE_hepatomegaly [7] | HepSE_cirrhosis [10] | HepSE_cholelithiasis [11] | HepSE_cholecystitis [14]
7: HepSE_Combined Scores [8]

NC[C@@H]1O[C@H](O[C@H]2[C@@H](O)[C@H](O[C@@H]3[C@@H](O)[C@H](N)C[C@H](N)[C@H]3O[C@H]3O[C@H](CO)[C@@H](O)[C@H](O)[C@H]3N)O[C@@H]2CO)[C@H](N)[C@@H](O)[C@@H]1O [PAROMOMYCIN]
0: HepSE_liver disease [1] | HepSE_jaundice [2] | HepSE_bilirubinemia [3] | HepSE_hepatitis [4] | HepSE_elevated liver function tests [5] | HepSE_hepatic failure [6] | HepSE_hepatomegaly [7] | HepSE_Combined Scores [8] | HepSE_liver fatty [9] | HepSE_cirrhosis [10] | HepSE_cholelithiasis [11] | HepSE_liver function tests abnormal [12] | HepSE_hepatic necrosis [13] | HepSE_cholecystitis [14]

CC(C)c1nc(N(C)S(C)(=O)=O)nc(-c2ccc(F)cc2)c1/C=C/[C@@H](O)C[C@@H](O)CC(=O)O [ROSUVASTATIN]
0: HepSE_liver disease [1] | HepSE_bilirubinemia [3] | HepSE_elevated liver function tests [5] | HepSE_hepatic failure [6] | HepSE_hepatomegaly [7] | HepSE_liver fatty [9] | HepSE_cirrhosis [10] | HepSE_cholelithiasis [11] | HepSE_liver function tests abnormal [12] | HepSE_hepatic necrosis [13] | HepSE_cholecystitis [14]
1: HepSE_jaundice [2] | HepSE_hepatitis [4]
2: HepSE_Combined Scores [8]

NS(=O)(=O)c1cc2c(cc1C(F)(F)F)NC(Cc1ccccc1)NS2(=O)=O (stereo not drawn) [BENDROFLUMETHIAZIDE]
2: HepSE_Combined Scores [8]
0: HepSE_liver disease [1] | HepSE_bilirubinemia [3] | HepSE_elevated liver function tests [5] | HepSE_hepatic failure [6] | HepSE_hepatomegaly [7] | HepSE_liver fatty [9] | HepSE_cirrhosis [10] | HepSE_cholelithiasis [11] | HepSE_liver function tests abnormal [12] | HepSE_hepatic necrosis [13] | HepSE_cholecystitis [14]
1: HepSE_jaundice [2] | HepSE_hepatitis [4]

CC(C)(S)[C@@H](N)C(=O)O [PENICILLAMINE]
1: HepSE_hepatic failure [6] | HepSE_Combined Scores [8]
0: HepSE_liver disease [1] | HepSE_jaundice [2] | HepSE_bilirubinemia [3] | HepSE_hepatitis [4] | HepSE_elevated liver function tests [5] | HepSE_hepatomegaly [7] | HepSE_liver fatty [9] | HepSE_cirrhosis [10] | HepSE_cholelithiasis [11] | HepSE_liver function tests abnormal [12] | HepSE_hepatic necrosis [13] | HepSE_cholecystitis [14]

CCC(=O)O[C@@H](O[P@](=O)(CCCCc1ccccc1)CC(=O)N1C[C@H](C2CCCCC2)C[C@H]1C(=O)O)C(C)C [FOSINOPRIL]
0: HepSE_liver disease [1] | HepSE_bilirubinemia [3] | HepSE_elevated liver function tests [5] | HepSE_liver fatty [9] | HepSE_cirrhosis [10] | HepSE_cholelithiasis [11] | HepSE_liver function tests abnormal [12] | HepSE_hepatic necrosis [13] | HepSE_cholecystitis [14]
1: HepSE_jaundice [2] | HepSE_hepatitis [4] | HepSE_hepatic failure [6] | HepSE_hepatomegaly [7]
4: HepSE_Combined Scores [8]

C[C@]12CC[C@@H]3c4ccc(OC(=O)N(CCCl)CCCl)cc4CC[C@H]3[C@@H]1CC[C@@H]2O [ESTRAMUSTINE]
0: HepSE_liver disease [1] | HepSE_jaundice [2] | HepSE_bilirubinemia [3] | HepSE_hepatitis [4] | HepSE_elevated liver function tests [5] | HepSE_hepatic failure [6] | HepSE_hepatomegaly [7] | HepSE_Combined Scores [8] | HepSE_liver fatty [9] | HepSE_cirrhosis [10] | HepSE_cholelithiasis [11] | HepSE_liver function tests abnormal [12] | HepSE_hepatic necrosis [13] | HepSE_cholecystitis [14]

Cc1nnc2n1-c1ccc(Cl)cc1C(c1ccccc1)=NC2 [ALPRAZOLAM]
0: HepSE_liver disease [1] | HepSE_bilirubinemia [3] | HepSE_elevated liver function tests [5] | HepSE_hepatomegaly [7] | HepSE_liver fatty [9] | HepSE_cirrhosis [10] | HepSE_cholelithiasis [11] | HepSE_liver function tests abnormal [12] | HepSE_hepatic necrosis [13] | HepSE_cholecystitis [14]
1: HepSE_jaundice [2] | HepSE_hepatitis [4] | HepSE_hepatic failure [6]
3: HepSE_Combined Scores [8]

O=[N+]([O-])O[C@@H]1CO[C@H]2[C@@H]1OC[C@@H]2O [ISOSORBIDE MONONITRATE]
1: HepSE_hepatomegaly [7] | HepSE_cholecystitis [14]
0: HepSE_liver disease [1] | HepSE_jaundice [2] | HepSE_bilirubinemia [3] | HepSE_hepatitis [4] | HepSE_elevated liver function tests [5] | HepSE_hepatic failure [6] | HepSE_liver fatty [9] | HepSE_cirrhosis [10] | HepSE_cholelithiasis [11] | HepSE_liver function tests abnormal [12] | HepSE_hepatic necrosis [13]
2: HepSE_Combined Scores [8]

Cn1nnc2c(C(N)=O)ncn2c1=O [TEMOZOLOMIDE]
0: HepSE_liver disease [1] | HepSE_jaundice [2] | HepSE_bilirubinemia [3] | HepSE_hepatitis [4] | HepSE_elevated liver function tests [5] | HepSE_hepatic failure [6] | HepSE_hepatomegaly [7] | HepSE_Combined Scores [8] | HepSE_liver fatty [9] | HepSE_cirrhosis [10] | HepSE_cholelithiasis [11] | HepSE_liver function tests abnormal [12] | HepSE_hepatic necrosis [13] | HepSE_cholecystitis [14]

c1ccc2[nH]c(-c3cscn3)nc2c1 [THIABENDAZOLE]
2: HepSE_Combined Scores [8]
0: HepSE_liver disease [1] | HepSE_bilirubinemia [3] | HepSE_hepatitis [4] | HepSE_elevated liver function tests [5] | HepSE_hepatomegaly [7] | HepSE_liver fatty [9] | HepSE_cirrhosis [10] | HepSE_cholelithiasis [11] | HepSE_liver function tests abnormal [12] | HepSE_hepatic necrosis [13] | HepSE_cholecystitis [14]
1: HepSE_jaundice [2] | HepSE_hepatic failure [6]

Nc1nc(N)c2nc(-c3ccccc3)c(N)nc2n1
0: HepSE_liver disease [1] | HepSE_bilirubinemia [3] | HepSE_hepatitis [4] | HepSE_elevated liver function tests [5] | HepSE_hepatic failure [6] | HepSE_hepatomegaly [7] | HepSE_liver fatty [9] | HepSE_cirrhosis [10] | HepSE_cholelithiasis [11] | HepSE_liver function tests abnormal [12] | HepSE_hepatic necrosis [13] | HepSE_cholecystitis [14]
1: HepSE_jaundice [2] | HepSE_Combined Scores [8]

COc1cc2ncnc(Nc3ccc(F)c(Cl)c3)c2cc1OCCCN1CCOCC1 [GEFITINIB]
0: HepSE_liver disease [1] | HepSE_jaundice [2] | HepSE_bilirubinemia [3] | HepSE_hepatitis [4] | HepSE_elevated liver function tests [5] | HepSE_hepatic failure [6] | HepSE_hepatomegaly [7] | HepSE_Combined Scores [8] | HepSE_liver fatty [9] | HepSE_cirrhosis [10] | HepSE_cholelithiasis [11] | HepSE_liver function tests abnormal [12] | HepSE_hepatic necrosis [13] | HepSE_cholecystitis [14]

CCCCCCCN(CC)CCCC(O)c1ccc(NS(C)(=O)=O)cc1 (stereo not drawn) [IBUTILIDE]
1: HepSE_elevated liver function tests [5] | HepSE_Combined Scores [8]
0: HepSE_liver disease [1] | HepSE_jaundice [2] | HepSE_bilirubinemia [3] | HepSE_hepatitis [4] | HepSE_hepatic failure [6] | HepSE_hepatomegaly [7] | HepSE_liver fatty [9] | HepSE_cirrhosis [10] | HepSE_cholelithiasis [11] | HepSE_liver function tests abnormal [12] | HepSE_hepatic necrosis [13] | HepSE_cholecystitis [14]

C[C@@H]1C[C@H]2[C@@H]3CCC4=CC(=O)C=C[C@]4(C)[C@@]3(F)[C@@H](O)C[C@]2(C)[C@H]1C(=O)CO [DESOXIMETASONE]
0: HepSE_liver disease [1] | HepSE_jaundice [2] | HepSE_bilirubinemia [3] | HepSE_hepatitis [4] | HepSE_elevated liver function tests [5] | HepSE_hepatic failure [6] | HepSE_hepatomegaly [7] | HepSE_Combined Scores [8] | HepSE_liver fatty [9] | HepSE_cirrhosis [10] | HepSE_cholelithiasis [11] | HepSE_liver function tests abnormal [12] | HepSE_hepatic necrosis [13] | HepSE_cholecystitis [14]

CC(COc1ccccc1)NC(C)C(O)c1ccc(O)cc1 (stereo not drawn) [ISOXSUPRINE]
0: HepSE_liver disease [1] | HepSE_jaundice [2] | HepSE_bilirubinemia [3] | HepSE_hepatitis [4] | HepSE_elevated liver function tests [5] | HepSE_hepatic failure [6] | HepSE_hepatomegaly [7] | HepSE_Combined Scores [8] | HepSE_liver fatty [9] | HepSE_cirrhosis [10] | HepSE_cholelithiasis [11] | HepSE_liver function tests abnormal [12] | HepSE_hepatic necrosis [13] | HepSE_cholecystitis [14]
